“And” between values parts separate entries of the source, which are not always exact repeats. Equal entries are not always repeated.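 Cultured in 96-well plates, cells were exposed to test compound for 48 hours across five concentrations. At the GI50, growth is halved. TGI denotes the concentration required for complete inhibition of growth.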
Experiments:
Assay in all cases: inhibition of tumour cell growth, NCI panel, 48 h
[1] = system: MDA-N
[2] = system: HCT-116 colon
[3] = system: TK-10 renal
[4] = system: EKVX NSCLC
[5] = system: MOLT-4 leukemia
[6] = system: SW-620 colon
[7] = system: SNB-19 CNS
[8] = system: SK-MEL-28 melanoma
[9] = system: UACC-257 melanoma
[10] = system: KM12 colon
[11] = system: NCI-H226 lung
[12] = system: SK-OV-3 ovarian
[13] = system: K-562 leukemia
[14] = system: A549 NSCLC
[15] = system: 786-0 renal
[16] = system: HS 578T breast
[17] = system: LOX IMVI melanoma
[18] = system: OVCAR-8 ovarian
[19] = system: SN12C renal
[20] = system: HOP-92 NSCLC
[21] = system: HL-60(TB) leukemia
[22] = system: SR leukemia
[23] = system: U251 CNS
[24] = system: UO-31 renal
[25] = system: SF-268 CNS
[26] = system: NCI-H23 lung
[27] = system: NCI-H522 lung
[28] = system: HOP-62 NSCLC
[29] = system: SNB-75 CNS
[30] = system: MDA-MB-435
[31] = system: HT29 colon
[32] = system: MDA-MB-231 breast
[33] = system: SF-295 CNS
[34] = system: MALME-3M melanoma
[35] = system: MCF7 breast
[36] = system: NCI/ADR-RES ovarian
[37] = system: T-47D breast
[38] = system: IGROV1 ovarian
[39] = system: COLO 205 colon
[40] = system: RXF 393 renal
[41] = system: CAKI-1 renal
[42] = system: DU-145 prostate
[43] = system: HCT-15 colon
[44] = system: OVCAR-4 ovarian
[45] = system: BT-549 breast
[46] = system: CCRF-CEM leukemia
[47] = system: OVCAR-5 ovarian
[48] = system: A498 renal
[49] = system: SK-MEL-2 melanoma
[50] = system: M14 melanoma
[51] = system: PC-3 prostate
[52] = system: SK-MEL-5 melanoma
[53] = system: OVCAR-3 ovarian
[54] = system: SF-539 CNS
[55] = system: RPMI-8226 leukemia
[56] = system: ACHN renal
[57] = system: NCI-H460 lung
[58] = system: UACC-62 melanoma
[59] = system: HCC-2998 colon

Cc1csc(NCc2ccc(Cl)cc2)n1
TGI [1]: > 100 µM | TGI [2]: > 100 µM | TGI [3]: > 100 µM | TGI [4]: > 100 µM | TGI [5]: > 100 µM | TGI [6]: > 100 µM | TGI [7]: > 100 µM | TGI [8]: > 100 µM | TGI [9]: > 100 µM | TGI [10]: > 100 µM | TGI [11]: > 100 µM | TGI [12]: > 100 µM | TGI [13]: > 100 µM | TGI [14]: > 100 µM | TGI [15]: > 100 µM | TGI [16]: > 100 µM | TGI [17]: > 100 µM | TGI [18]: > 100 µM | TGI [19]: > 100 µM | TGI [20]: 89.9 µM | TGI [21]: > 100 µM | TGI [22]: > 100 µM | TGI [23]: > 100 µM | TGI [24]: > 100 µM | TGI [25]: > 100 µM | TGI [26]: > 100 µM | TGI [27]: > 100 µM | TGI [28]: > 100 µM | TGI [29]: > 100 µM | TGI [30]: > 100 µM | TGI [31]: > 100 µM | TGI [32]: > 100 µM | TGI [33]: > 100 µM | TGI [34]: > 100 µM | TGI [35]: > 100 µM | TGI [36]: > 100 µM | TGI [37]: > 100 µM | TGI [38]: > 100 µM | TGI [39]: 63.1 µM | TGI [40]: 79 µM | TGI [41]: > 100 µM | TGI [42]: > 100 µM | TGI [43]: > 100 µM | TGI [44]: > 100 µM | TGI [45]: > 100 µM | TGI [46]: > 100 µM | TGI [47]: > 100 µM | TGI [48]: > 100 µM | TGI [49]: > 100 µM | TGI [50]: > 100 µM | TGI [51]: > 100 µM | TGI [52]: 59.4 µM | TGI [53]: > 100 µM | TGI [54]: > 100 µM | TGI [55]: > 100 µM | TGI [56]: > 100 µM

c1cc(CSP234N5CCN2CCN3CCN4CC5)cc(CSP234N5CCN2CCN3CCN4CC5)c1
TGI [1]: 79.9 µM | TGI [2]: > 100 µM | TGI [3]: > 100 µM | TGI [4]: > 100 µM | TGI [5]: 49.5 µM | TGI [6]: > 100 µM | TGI [7]: > 100 µM | TGI [8]: 44.6 µM | TGI [9]: 34.9 µM | TGI [10]: 47.1 µM | TGI [13]: > 100 µM | TGI [14]: > 100 µM | TGI [15]: > 100 µM | TGI [16]: 69.3 µM | TGI [17]: 35.1 µM | TGI [18]: 41.9 µM | TGI [57]: > 100 µM | TGI [19]: > 100 µM | TGI [20]: 64.5 µM | TGI [21]: 28.1 µM | TGI [22]: 28.2 µM | TGI [58]: 36.6 µM | TGI [23]: 56.2 µM | TGI [24]: 39.3 µM | TGI [59]: 57.5 µM | TGI [25]: > 100 µM | TGI [26]: > 100 µM | TGI [27]: 43.1 µM | TGI [28]: > 100 µM | TGI [29]: 76.4 µM | TGI [30]: 59.3 µM | TGI [31]: 61 µM | TGI [32]: 38.2 µM | TGI [33]: 46.2 µM | TGI [35]: 68.6 µM | TGI [36]: > 100 µM | TGI [37]: > 100 µM | TGI [38]: 76.6 µM | TGI [39]: 49.9 µM | TGI [41]: > 100 µM | TGI [42]: > 100 µM | TGI [43]: 70.8 µM | TGI [44]: > 100 µM | TGI [45]: 51.6 µM | TGI [46]: 62.3 µM | TGI [47]: > 100 µM | TGI [49]: 45.1 µM | TGI [50]: 49 µM | TGI [51]: > 100 µM | TGI [52]: 45.5 µM | TGI [53]: > 100 µM | TGI [54]: 55.5 µM | TGI [55]: > 100 µM | TGI [56]: > 100 µM

O=C1OC(c2ccccc2)=N/C1=C\c1ccccc1
TGI [1]: > 100 µM | TGI [2]: > 100 µM | TGI [3]: > 100 µM | TGI [4]: > 100 µM | TGI [5]: 85.5 µM and > 100 µM | GI50 [6]: > 100 µM and 35.5 µM | TGI [6]: > 100 µM | TGI [7]: > 100 µM | TGI [8]: > 100 µM | TGI [9]: 59.7 µM and > 100 µM | TGI [10]: > 100 µM and 62.2 µM | TGI [11]: > 100 µM and 58.2 µM | TGI [12]: > 100 µM | GI50 [13]: > 100 µM and 19.8 µM | TGI [13]: > 100 µM and 46.3 µM | TGI [14]: > 100 µM | GI50 [15]: 44.6 µM and > 100 µM | TGI [15]: > 100 µM | TGI [16]: > 100 µM | TGI [17]: 51.8 µM and 31.6 µM | TGI [18]: > 100 µM and 73.1 µM | TGI [57]: > 100 µM | TGI [19]: > 100 µM | TGI [20]: > 100 µM | TGI [21]: 99.2 µM and 84.4 µM | TGI [22]: 73.4 µM and > 100 µM | TGI [58]: > 100 µM | TGI [23]: > 100 µM | TGI [24]: > 100 µM | TGI [59]: > 100 µM | GI50 [25]: 14.5 µM and 34.8 µM | TGI [25]: 82.5 µM and > 100 µM | TGI [26]: > 100 µM | TGI [27]: > 100 µM | TGI [28]: > 100 µM and 73.5 µM | TGI [29]: > 100 µM | TGI [30]: > 100 µM | GI50 [31]: > 100 µM and 32.8 µM | TGI [31]: > 100 µM | TGI [32]: > 100 µM | TGI [33]: > 100 µM | TGI [35]: > 100 µM | TGI [36]: > 100 µM and 76.9 µM | TGI [37]: > 100 µM | TGI [38]: > 100 µM | GI50 [39]: > 100 µM and 37.2 µM | TGI [39]: > 100 µM | GI50 [40]: > 100 µM and 43 µM | TGI [40]: > 100 µM | TGI [41]: > 100 µM | TGI [42]: > 100 µM | GI50 [43]: > 100 µM and 49 µM | TGI [43]: > 100 µM | TGI [44]: > 100 µM | GI50 [45]: 68.9 µM and 26.8 µM | TGI [45]: > 100 µM | TGI [46]: 74.4 µM and 87.5 µM | TGI [47]: > 100 µM | TGI [48]: > 100 µM | TGI [49]: 46.8 µM | TGI [50]: > 100 µM | TGI [51]: > 100 µM | TGI [52]: > 100 µM | TGI [53]: > 100 µM | TGI [54]: 55.2 µM and 40.8 µM | TGI [55]: > 100 µM and 56.8 µM | TGI [56]: > 100 µM
